Reference: US4602018A, “Condensed as-triazine derivatives” (Egyt Gyogyszevegyeszeti Gyar, priority 1983, dated 1986)
Where two headings read alike, the source gives them in different places.

Assays:
Assay type in all cases: in vivo
rats = assay: Acute toxicity on rats; details: p.o., 14 days observation, 20160 min
mice = assay: Acute toxicity on mice; details: p.o., 7 days observation, 10080 min
Experimental: (§1) The test is carried out on male and female white mice belonging to the CFLP strain and weighing 18-22 g. The test compound is administered orally and the animals are observed for a period of 7 days. In the groups for each dose half of the animals are male and the other half are female. The animals are kept in a plastic box (39×12×12 cm) on scrapings litter at room temperature. The mice receive standard fodder and tap water ad libitum. The toxicity data are determined by the method of Litchfield-Wilcoxon.
(§2) The test compound is administered in an aqueous solution.

tremorine-induced tremor = assay: Antitremorine effect on mice
Experimental: 20 mg./kg. of tremorine are administered i.p. to mice whereupon after 45 minutes the induced characteristic tremor is registered. The test compounds are administered orally 1 hour before the addition of tremorine.

reserpine ptosis = assay: Antagonism of reserpine ptosis on rats, p.o.; details: for ED50: reserpine 2.5 mg./kg. s.c.
Experimental: The animals showing ptosis are counted until the effect decreases. The evaluation is carried out as described in connection with the previous ptosis test (test 3).

tetrabenazine ptosis [1] = assay: Antagonism of tetrabenazine ptosis on rats, p.o.
Experimental: (3) ANTAGONISM OF TETRABENAZINE PTOSIS, ON MICE AND RATS, P.O. […] The results are evaluated as follows: on the basis of all the measured data an average ptosis is calculated for each group and the deviation from the average of the control group is expressed in percent (inhibition). The ED50 values are calculated from the data thus obtained.

[2] = tested on: aconitine-induced ECG changes; assay: animal or person; details: rats
Experimental: The test is carried out according to the modified method of Marmo et al. The test animals are narcotized with ethyl urethane (1.2 g./kg. i.p.). Aconitine is administered intravenously in the form of a bolus injection in a dose of 75 μg./kg. The changes of ECG are followed in standard II outlet 5 minutes after the administration of aconitine. The changes observed are evaluated with the aid of a scale from 0 to 5 points. The test compound is administered either intravenously 2 minutes before the addition of aconitine, or orally 1 hour before the aconitine administration.

tetrabenazine ptosis [3] = assay: Antagonism of tetrabenazine ptosis on mice, p.o.; details: for ED50: tetrabenazine 50 mg/kg i.p.
carrageenin oedema = assay: Antiinflammatory effect on rats (carrageenin paw oedema); details: for ED50: Rattus norvegicus, read-out: Oedema inhibitory effect ED50
Experimental: Into the planar surface of the hind leg of rats weighing 150-180 g. 0.1 ml. of 1% carrageenin is injected. The volume of the paw is determined before and 3 hours after the administration of the irritating agent with a plethysmometer. The animals are pre-treated with the test compound and the carrier (control), respectively, for an hour. Because of the different solubility properties Tween 80 as auxiliary agent is used.

Acute toxicity on rats = details: rat, in vivo, po, 14 days observation
Acute toxicity on mice = details: mouse, in vivo, po, 7 days observation
Experimental: as §1, §2

[4] = 0.1 ml. of 1% carrageenin, 3 hours, pre-treated for an hour
[5] = Rattus norvegicus, po, read-out: ED50
[6] = Rattus norvegicus, iv, i.v. 2 minutes before aconitine 75 μg./kg. i.v.
[7] = Rattus norvegicus, po, p.o. 1 hour before aconitine 75 μg./kg. i.v.
[8] = Mus musculus, po, read-out: ED50

Question: Which LD50 (rats) does the source give for `OC1(c2ccc(Cl)cc2)NC=N[n+]2ccc3ccccc3c21` (centres unmarked) [Compound B, 1-(4-chloro-phenyl)-1-hydroxy-1,2-dihydro-as-triazino[6,1-a]isoquinolinium-chloride] here?
Answer: Its LD50 is “about 1100 mg/kg”.

Question: What about the LD50 (mice) of the same compound?
Answer: The LD50 was 560 mg/kg.

Question: And the Ther. index (tremorine-induced tremor)?
Answer: The Ther. index was 93.3.

Question: What about the ED50 (tremorine-induced tremor; Mus musculus, po, p.o. 1 hour before tremorine 20 mg./kg. i.p.) of the same compound?
Answer: The ED50 was 6 mg/kg.

Question: What about the Ther. index (reserpine ptosis) of the same compound?
Answer: Its Ther. index is 39.3.

Question: What about the ED50 (reserpine ptosis) of the same compound?
Answer: The ED50 was 28 mg/kg.

Question: And the ED50 (tetrabenazine ptosis [1])?
Answer: Its ED50 is 1.0 mg/kg.

Question: What about the Ther. index (tetrabenazine ptosis [1]) of the same compound?
Answer: Its Ther. index is 1100.

Question: And the Ther. index [2]?
Answer: Its Ther. index is 27.5.

Question: What about the ED50 ([2]; i.v. 2 minutes before aconitine 75 μg./kg. i.v.) of the same compound?
Answer: Its ED50 is 1.6 mg/kg.

Question: And the ED50 ([2]; p.o. 1 hour before aconitine 75 μg./kg. i.v.)?
Answer: The ED50 was 30 mg/kg.

Question: What about the Ther. index (tetrabenazine ptosis [3]) of the same compound?
Answer: Its Ther. index is 1867.

Question: What about the ED50 (tetrabenazine ptosis [3]) of the same compound?
Answer: Its ED50 is 0.3 mg/kg.

Question: What does the source list for `CCCCC1C(=O)N(c2ccccc2)N(c2ccccc2)C1=O` [Phenylbutazon, 4-butyl-1,2-diphenyl-3,5-pyrazolidine-dione]?
Answer: Ther. index (carrageenin oedema): 5.3; ED50 (carrageenin oedema; [4]): ~90 mg/kg

Question: For `OC1(c2ccc(Cl)cc2)NC=N[n+]2ccc3ccccc3c21` (centres unmarked) [Compound C, 1-(4-chloro-phenyl)-1-hydroxy-1,2-dihydro-as-triazino[6,1-a]isoquinolinium-bromide], which LD50 (rats) is on record?
Answer: The LD50 was “about 1030 mg/kg”.

Question: What about the LD50 (mice) of the same compound?
Answer: The LD50 was 590 mg/kg.

Question: And the Ther. index (reserpine ptosis)?
Answer: Its Ther. index is 49.0.

Question: What about the ED50 (reserpine ptosis) of the same compound?
Answer: The ED50 was 21 mg/kg.

Question: What about the ED50 (tetrabenazine ptosis [1]) of the same compound?
Answer: Its ED50 is 5.4 mg/kg.

Question: And the Ther. index (tetrabenazine ptosis [1])?
Answer: Its Ther. index is 191.

Question: What about the Ther. index (tetrabenazine ptosis [3]) of the same compound?
Answer: The Ther. index was 203.

Question: What about the ED50 (tetrabenazine ptosis [3]) of the same compound?
Answer: Its ED50 is 2.9 mg/kg.

Question: Which LD50 at 336 h (Acute toxicity on rats) does the source give for `OC1(c2ccc(Cl)cc2)NC=N[n+]2ccc3ccccc3c21` (centres unmarked) [Compound A, 1-(4-chloro-phenyl)-1-hydroxy-1,2-dihydro-as-triazino[6,1-a]isoquinolinium-ethanesulfonate] here?
Answer: The LD50 at 336 h was 1300 mg/kg.

Question: What about the LD50 at 168 h (Acute toxicity on mice) of the same compound?
Answer: Its LD50 at 168 h is 410 mg/kg.

Question: And the Ther. index (carrageenin oedema)?
Answer: The Ther. index was 53.1.

Question: And the ED50 (carrageenin oedema; [4])?
Answer: The ED50 was 24.5 mg/kg.

Question: What about the Ther. index (reserpine ptosis) of the same compound?
Answer: Its Ther. index is 92.8.

Question: And the ED50 (reserpine ptosis; [5])?
Answer: The ED50 was 14 mg/kg.

Question: What about the ED50 (tetrabenazine ptosis [1]) of the same compound?
Answer: Its ED50 is 0.3 mg/kg.

Question: What about the Ther. index (tetrabenazine ptosis [1]) of the same compound?
Answer: Its Ther. index is 4333.

Question: What about the ED50 [2, 6] of the same compound?
Answer: Its ED50 is 0.9 mg/kg.

Question: What about the ED50 [2, 7] of the same compound?
Answer: Its ED50 is 40 mg/kg.

Question: And the Ther. index [2]?
Answer: The Ther. index was 32.5.

Question: And the Ther. index (tetrabenazine ptosis [3])?
Answer: Its Ther. index is 1367.

Question: And the ED50 (tetrabenazine ptosis [3])?
Answer: Its ED50 is 0.3 mg/kg.

Question: With `Clc1ccc(-c2ncn[n+]3ccc4ccccc4c23)cc1` [Reference compound D, 1-(4-chloro-phenyl)-as-triazino[6,1-a]isochinolinium-bromide, reference compound] as the compound, how does the LD50 at 168 h (Acute toxicity on mice) read?
Answer: Its LD50 at 168 h is 600 mg/kg.

Question: And the “Oedema inhibitory effect ED50” value (carrageenin oedema; [4])?
Answer: The value was “no effect”.

Question: And the “Antitremorine effect ED50” value (tremorine-induced tremor; p.o. 1 hour before tremorine 20 mg./kg. i.p.)?
Answer: The value was “inactive”.

Question: And the Ther. index (reserpine ptosis)?
Answer: Its Ther. index is 16.7.

Question: And the ED50 (reserpine ptosis; [5])?
Answer: The ED50 was about 60 mg/kg.

Question: What about the Ther. index (tetrabenazine ptosis [1]) of the same compound?
Answer: The Ther. index was 179.

Question: And the ED50 (tetrabenazine ptosis [1]; [5])?
Answer: The ED50 was 5.6 mg/kg.

Question: And the ED50 (tetrabenazine ptosis [3]; [8])?
Answer: Its ED50 is 3.2 mg/kg.

Question: Which ED50 [2, 6] does the source give for `CCN(CC)CC(=O)Nc1c(C)cccc1C` [Lidocain, α-diethylamino-2,6-dimethyl-acetanilide, reference compound] here?
Answer: Its ED50 is 4 mg/kg.

Question: What about the ED50 [2, 7] of the same compound?
Answer: The ED50 was 120 mg/kg.

Question: And the “Antiarrhythmial effect (in words)” value ([2]; i.v. and p.o.)?
Answer: The value was “inactive”.

Question: What about the “Antiarrhythmial effect (percent in parentheses)” value ([2]; p.o., at 120 mg./kg.) of the same compound?
Answer: The value was 3.5%.

Question: What does the source list for `CN(C)CCC=C1c2ccccc2CCc2ccccc21` [Amitriptyline, N,N-dimethyl-3-[dibenzo[a,d]-cycloheptadiene-5-ylidene]-propylamine, reference compound]?
Answer: LD50 at 168 h (Acute toxicity on mice): 225 mg/kg; Ther. index (reserpine ptosis): 3.6; ED50 (reserpine ptosis; [5]): ~140 mg/kg; Ther. index (tetrabenazine ptosis [1]): 46; ED50 (tetrabenazine ptosis [3]; [8]): 12 mg/kg
